Data on one compound can be found in US9738610B2, “Indazole derivatives and uses thereof” (Whitehead Institute for Biomedical Research, priority 2012, dated 2017).

Where two headings read alike, the source gives them in different places. Bounds are passed on as bounds.

Data set [1] relates to C. albicans CaCi-2. Briefly: CaCi-2 growth inhibition in the presence of 8 μg/ml fluconazole (Alamar Blue). The format is cell-based, Candida albicans. The conditions noted are these: Candida albicans.
For data set [2], the system named is C. albicans CaCi-2. Briefly: Secondary single-agent (no-fluconazole) activity assay. The data set is classed as cell-based, Candida albicans. The conditions noted are these: for IC50: Candida albicans. A digest of the protocol: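 C. albicans CaCi-2 in RPMI synthetic defined medium with 1% Pen/Strep, starting OD600 0.00015, exposed to compound alone (no fluconazole) for 48 h at 37 °C without agitation. Growth read as Alamar Blue fluorescence (1:200 final) after 2 h at room temperature.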

For data set [3], the system named is C. albicans CaCi-8. Briefly: microbe, parasite or virus in culture. The conditions noted are these: Candida albicans. The format is cell-based, Candida albicans. An outline of the steps: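 Hits tested for chemosensitization of the fluconazole-resistant CaCi-8 strain, for inherent antifungal activity without fluconazole, and for mammalian fibroblast toxicity by fluorescence reporter. Geldanamycin plus fluconazole served as positive control; a Saccharomyces assay assigned mechanism to Hsp90, calcineurin or other pathways.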

Data set [4] relates to NIH-3T3 mammalian fibroblasts. Briefly: Counterscreen mammalian cell toxicity assay (fibroblast toxicity). The format is cell-based, murine. The conditions noted are these: for IC50: Mus musculus.
A short description of data set [5]: PBS stability assay. The format is physicochemical. Conditions: 48-hour incubation, 23° C.
A short description of data set [6]: PBS solubility. Conditions: PBS, aqueous buffer.
Data set [7] in a line: Plasma stability. Conditions: % remaining in human plasma after a 5-hour incubation.
Data set [8] can be described thus: Plasma protein binding. The conditions noted are these: human, plasma.

`COC(=O)Cn1nc(-c2cccc(OC)c2)c2ccccc21` [Compound I-4, methyl 2-(3-(3-methoxyphenyl)-1H-indazol-1-yl)acetate]: the IC50 is 440 nM in data set [1] (CACI2, read-out: CaCi-2 IC50 with 8 μg/ml fluconazole); 440 nM in data set [1] (CACI2, read-out: CaCi-2 growth inhibition IC50 (nM)); more than 26000 nM in data set [2] (CACI2, read-out: Activity without fluconazole IC50 (nM)); more than 26000 nM in data set [2] (CACI2, read-out: CaCi-2 IC50 without fluconazole); 1200 nM in data set [3] (CACI8, read-out: CaCi-8 IC50 with 8 μg/ml fluconazole, Table 12); 1210 nM in data set [3] (CACI8, read-out: CaCi-8 growth inhibition IC50 (nM), in the presence of fluconazole). Besides, the IC50 in data set [4] (NIH3T3, read-out: Fibroblast toxicity IC50 (nM)) was more than 26000 nM; in data set [4] (NIH3T3, read-out: IC50 in the mammalian fibroblast assay), more than 26000 nM. Further, the “Dose-dependent activity against C. albicans CaCi-2” value in data set [2] is “inactive”. The “Fold Selective* (Anti-target IC50/Target IC50)” value in data set [2] (activity without fluconazole vs CaCi-2 growth inhibition with fluconazole) and in data set [4] (fibroblast toxicity vs CaCi-2 growth inhibition) was 59 in each case. Besides, in data set [4], the “Dose-dependent activity against murine 3T3 fibroblasts” value is “inactive”. In addition, the “Mammalian fibroblast IC50 relative to CaCi-2 IC50 with fluconazole” value in data set [4] was >59-fold. Moreover, the “Stability in PBS solution, remaining” value in data set [5] is listed as more than 99%. In data set [6], this compound registered a solubility of less than 1 µM. The “Plasma Stability” value in data set [7] is recorded as “approximately 3%”. The compound also showed a free fraction (fraction unbound) in data set [8] of 0.05.
